Patent publication US3991210A, “Acetamidine urinary antiseptics” (The Dow Chemical Company, priority 1975, dated 1976)

Experiments:
[1] = Stability in comparison to the hydrochloride salt (general statement); assay type: physicochemical; details: versus hydrochloride salt
[2] = Anorectic effect on repeated oral dosing in rats; assay type: in vivo; details: 100 mg/kg per day
[3] = test system: bacterial microorganisms which may infect the mammalian urinary system; assay: Urinary antiseptic activity (general statement); design: species or system mammals; details: in vivo
[4] = Toxicity / detrimental pharmacological effects (general statement); assay type: in vivo, mammals
[5] = test system: Proteus mirabilis; assay: Proteus mirabilis urinary tract infection in rats, bacterial count per kidney (Example 6); assay type: in vivo; details: oral; for Mean Bacterial Count (number of organisms per kidney): three doses at 4, 28, 52 hours, 72 hours
Method: In a similar operation, a Proteus mirabilis urinary tract infection was established in rats using a similar surgical technique. In separate groups, the test compound 2-(4-bromophenyl)acetamidine p-toluene-sulfonate, or the reference compound nalidixic acid, were administered orally in three doses, 4, 28 and 52 hours after completion of the surgical technique used to establish the infection. Separate groups of rats were left untreated to serve as controls. After 72 hours, the animals were euthanized with carbon dioxide. The left kidney was removed, homogenized in 9 milliliters sterile saline solution, and fivefold dilutions of the resulting brei were made in brain-heart infusion broth. Bacterial counts in the dilutions were determined after 24 hours incubation at 37° C. The oral dose in milligrams per kilogram (mg/kg); millimoles per kilogram (mM); the number of animals in each group, and the base ten logarithm (Log10) of the bacterial count (number of organisms per kidney) are set out below.

[6] = Acute oral lethality (LD50) in mice; details: mouse, in vivo
Method: Separate groups of mice are separately administered an aqueous composition containing 2-(4-bromophenyl)acetamidine hydrochloride. The compound is administered per os at various dosage rates, and the animals are held for 24 hours, after which deaths are recorded, and the LD50 (dosage lethal to 50 percent of the mice) is determined.

## Cc1ccc(S(=O)(=O)O)cc1.N=C(N)Cc1ccc(Br)cc1 [2-(4-bromophenyl)acetamidine p-toluene-sulfonate]
[1]
  stability in comparison to the corresponding hydrochloride salt: improved
[2]; by the fourth week of dosing
  anorectic effect, by the fourth week: decreases and substantially disappears by the fourth week of dosing
[2]; during the first week
  anorectic effect, first week: an anorectic effect is observed during the first week
[3]
  urinary antiseptic activity: high degree of urinary antiseptic activity
[4]; in vivo
  toxicity: low toxicity
[4]; versus hydrochloride salt
  toxicity characteristics in comparison to the corresponding hydrochloride salt: improved
[5]; 12.5 mg/kg
  Mean Bacterial Count (number of organisms per kidney): 7.49 Log10
[5]; 25 mg/kg
  Mean Bacterial Count (number of organisms per kidney): 6.01 Log10
[5]; 50 mg/kg
  Mean Bacterial Count (number of organisms per kidney): 4.23 Log10
[5]; 100 mg/kg
  Mean Bacterial Count (number of organisms per kidney): 2.68 Log10
[5]; equal dose of nalidixic acid on a weight basis
  reduction of bacterial counts relative to nalidixic acid, weight basis: comparable to an equal dose of nalidixic acid, on a weight basis
[5]; on a molar basis
  effectiveness relative to nalidixic acid, molar basis: more effective, on a molar basis, than nalidixic acid
[6]
  LD50 at 24 h: 2610 mg/kg
